According to patent US8324238B2:
Like-named read-outs stand apart in the source and are kept apart here.

What was measured:
[1] = system: Bone Marrow Cells of Male Mice; experiment: Micronucleus test in bone marrow cells of male mice (Example 14); conditions: 70 mg/kg intraperitoneally
Procedure: 70 mg/kg intraperitoneally administration of CPA is used as a positive control dosage (seven male ICR mice are used in each group). Twenty-four hours after single injection administration, all animals are sacrificed and the changes on the number of polychromatic erythrocyte with one or more nuclei (MNPCE) are evaluated with the changes on the total white blood cells and difference counts on the neutrophils and lymphocytes on the prepared blood. In addition, PCE/(PCE+normochromatic erythrocytes (NCE)) ratio are calculated by counting 500 erythrocytes for detecting possibility of cytotoxicity.

male ICR mice = experiment: Mouse toxicity test, intraperitoneal (Example 6)
Procedure: Male ICR mice are divided into six dose groups (five mice per group), and then fasted (no food is given except water) for 24 hours. […] A median lethal dose (LD50), an approximate lethal dose, and a maximum tolerate dose are determined after observation for 14 days.
Necropsy and histopathology findings are also performed.

[2] = Pharmacokinetic study after intravenous administration in rats (Example 10); conditions: 10 mg/kg i.v. in male SD rats
[3] = in vivo
[4] = mouse, in vivo
Procedure: Seven week old male mice (ICR CD-1), 28-31 g of body weight upon receipt, are used.
Blood is sampled at 0.25, 0.5, 1, 1.5, 2, 3, 4, and 5 hours after dosing by orbital puncture.

[5] = Solubility of various salts in distilled water, converted into free base (Example 4B); conditions: room temperature, converted into the corresponding solubilities of free base
[6] = system: gram positive bacteria, gram negative bacteria, methicillin resistant bacteria, penicillin resistant bacteria, and the known quinolone resistant strains; conditions: cited from earlier work
[7] = Solubility of various salt forms in various solvents at room temperature (Example 4A); format: physicochemical; conditions: read-out: Salt Form Solubility
[8] = See Korean Patent No. 10-566346; cited from earlier work
[9] = 24 hours after single injection
[10] = male ICR mice, intraperitoneal, 14 days observation
[11] = male, ICR, mouse, in vivo, ip, 14 days

With `O=P1(N(CCCl)CCCl)NCCCO1` (stereo not shown) [CPA, cyclophosphamide] the “MNPCEs 2000 PCEs” value [1, 9] was 71.86 ± 10.43, the “PCE(PCE + NCE) ratio” value [1, 9] was 0.36 ± 0.07 and the “Proportions among 100 leukocytes (%) Lymphocytes” value [1, 9] was 75.71 ± 9.20%. For the same molecule, the “Proportions among 100 leukocytes (%) Neutrophils” value [1, 9] was 21.71 ± 9.45%, the Total leukocyte numbers [1, 9] was 2.36 ± 0.55 ×10^3 cells mm^3 and the “Change of MNPCE” value ([1]; CPA treated group) was “significant increase of MNPCE”. For the same molecule, the “Loss of Locomotion” value ([1]; male ICR mice, single) was 0/7 and the Mortality ([1]; male ICR mice, single) was 0/7.
Molecule `CON=C1CN(c2nc3c(cc2F)c(=O)c(C(=O)O)cn3C2CC2)CC12CNC2` [Formate] has an Approximate lethal dose (male ICR mice; [10]) of 500 to 1000 mg/kg, a Median lethal dose (male ICR mice; [10]) of 716.24 mg/kg and a Maximum tolerate dose (male ICR mice; [11]) of 500 mg/kg.
Work on `CON=C1CN(c2nc3c(cc2F)c(=O)c(C(=O)O)cn3C2CC2)CC12CNC2.Cl` [Hydrochloride] yielded an Approximate lethal dose (male ICR mice; [10]) of 250 to 500 mg/kg, a Maximum tolerate dose (male ICR mice; [10]) of 250 mg/kg and a Median lethal dose (male ICR mice; [10]) of 481.93 mg/kg. The “AUC 0-5 hr” value [2] was 6.070 ± 0.731, the AUC inf [2] was 6283 ± 804 ng·h/mL and the C last [2] was 137 ± 42 ng/mL. For the same molecule, the Half-life [2] was 1.061 ± 0.093 h, the T last [2] was 5.0 ± 0.0 h and the Fibrous peritonitis [3] was “severe fibrous peritonitis”. For the same molecule, the C last ([4]; iv, 10 mg/kg) was 67 ng/mL, the Half-life ([4]; iv, 10 mg/kg) was 1.259 h and the T last ([4]; iv, 10 mg/kg) was 4.0 h. The Half-life ([4]; po, 100 mg/kg) was 2.205 h.
Work on `[Mg]` [Magnesium] yielded a Solubility [5] of 20 µg/mL.
Molecule `CON=C1CN(c2nc3c(cc2F)c(=O)c(C(=O)O)cn3C2CC2)CC12CNC2` [Methanesulfonate] has an Approximate lethal dose (male ICR mice; [10]) of 500 to 1000 mg/kg, a Median lethal dose (male ICR mice; [10]) of 716.24 mg/kg and a Maximum tolerate dose (male ICR mice; [11]) of 500 mg/kg.
In the case of `CON=C1CN(c2nc3c(cc2F)c(=O)c(C(=O)O)cn3C2CC2)CC12CNC2` [Parent Compound], the Antimicrobial activity [6] is given as “excellent antimicrobial activity”, the Solubility ([7]; aqueous solution with a pH of 1.2, simulated gastric fluid, pH 1.2, room temperature) is given as 7700 µg/mL and the Solubility ([7]; aqueous solution with a pH of 6.8, aqueous buffer, pH 6.8, room temperature) is given as 38 µg/mL. For the same molecule, the Solubility ([7]; solvent of pH 4.0, aqueous buffer, pH 4.0, room temperature) was 6490 µg/mL and the Aqueous solubility [8] was “low”.
With `CON=C1CN(c2nc3c(cc2F)c(=O)c(C(=O)O)cn3C2CC2)CC12CNC2` [Phosphate] the Approximate lethal dose (male ICR mice; [10]) was 250 to 500 mg/kg, the Median lethal dose (male ICR mice; [10]) was 356.91 mg/kg and the Maximum tolerate dose (male ICR mice; [11]) was 250 mg/kg.
For `O=C(O)c1ccccc1O` [Salicylate], the Solubility [5] was 110 µg/mL.
For Fumarate, the Solubility [5] was 630 µg/mL.
Work on Maleate yielded a Solubility [5] of 180 µg/mL.
Molecule Mandelate has a Solubility [5] of 1010 µg/mL.
